Experiments:
hAT1R [1] = molecular target: T1, hAT1R (Homo sapiens, UniProt P30556); test: BRET β-arrestin2 biosensor assay, higher receptor expression (hAT1R 5 ng/well), HEK293 cells; assay type: cell-based; conditions: for EC50: High AT1R Expression
T1 sequence (P30556 1-359): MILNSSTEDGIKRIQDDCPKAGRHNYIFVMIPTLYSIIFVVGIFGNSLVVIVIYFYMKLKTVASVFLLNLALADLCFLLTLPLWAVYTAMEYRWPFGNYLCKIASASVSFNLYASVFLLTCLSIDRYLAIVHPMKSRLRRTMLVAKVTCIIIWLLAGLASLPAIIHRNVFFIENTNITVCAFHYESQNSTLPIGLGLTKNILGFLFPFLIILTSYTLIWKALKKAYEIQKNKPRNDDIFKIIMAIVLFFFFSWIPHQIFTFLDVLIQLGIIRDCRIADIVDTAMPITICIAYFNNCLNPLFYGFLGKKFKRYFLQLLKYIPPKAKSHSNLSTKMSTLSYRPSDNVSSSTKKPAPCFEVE

AGTR1 [2] = molecular target: T2, AGTR1 (Homo sapiens, UniProt P30556); test: DiscoveRx β-arrestin2 recruitment assay (enzyme complementation, Pathunter CHO-K1 AGTR1 β-arrestin cell line); assay type: cell-based; conditions: DiscoveRx β-arrestin2 recruitment; for DiscoveRx β-arrestin2 Ymax (%): maximal response
T2 construct: host or cells: Pathunter CHO-K1 AGTR1 β-arrestin cell line (CHO-K1)
T2 sequence (P30556 1-359): T1 sequence (P30556 1-359)
In short: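 Chemiluminescent enzyme-complementation read-out of β-arrestin2 recruitment to AGTR1 in engineered CHO-K1 cells after 90 min compound exposure at 37° C. Values are 4-parameter logistic EC50s in agonist mode, IC50s in antagonist mode, with efficacy relative to the maximal All response.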

AGTR1 [3] = molecular target: T2, AGTR1; test: DiscoveRx IP1 accumulation assay (HTRF), agonist mode, Pathunter CHO-K1 AGTR1 β-arrestin cell line; assay type: cell-based; conditions: for EC50: read-out: IP-1 EC50
In short: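 Agonist mode in CHO-K1 AGTR1 β-arrestin cells plated 14-16 h before; compounds at varying concentrations for 90 min at 37° C, IP1 accumulation read by HTRF (D2-conjugate and anti-IP1 cryptate, 20 min room temperature). EC50 from 4-parameter logistic fit; activity given as percentage of maximal AII effect.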

hAT1R [4] = molecular target: T1, hAT1R; test: cell-based; conditions: section of the 42nd table ending at r951, example numbering restarts after the DiscoveRx section; read-out: β-arrestin2 EC50
hAT1R [5] = molecular target: T1, hAT1R; test: cell-based; conditions: agonist mode; for EC50: read-out: BRET P63 EC50

CCc1nc2c(C)cc(C)nc2n1Cc1ccc(-c2cc(Oc3ccccc3F)ccc2-c2nnn[nH]2)cc1 [Example 205, 2-Ethyl-3-((5′-(2-fluorophenoxy)-2′-(1H-tetrazol-5-yl)-[1,1′-biphenyl]-4-yl)methyl)-5,7-dimethyl-3H-imidazo[4,5-b]pyridine]
BRET β-Arrestin2 High AT1R Expression Ymax (%) (hAT1R [1]): 92.1% | EC50 (hAT1R [1]): 4.8 nM | EC50 (AGTR1 [2]): 31.8 nM | DiscoveRx β-arrestin2 Ymax (%) (AGTR1 [2]): 42.2% | IP-1 Ymax (%) (AGTR1 [3]): 16.7% | EC50 (AGTR1 [3]): 70.2 nM | EC50 (hAT1R [4]): 21.3 nM | BRET P63 Ymax (hAT1R [5]): 20.2% | EC50 (hAT1R [5]): 18.4 nM

CCc1nc2c(C)cc(C)nc2n1Cc1ccc(-c2cc(Oc3ccc(F)cc3F)ccc2-c2nnn[nH]2)cc1 [Example 208]
BRET β-Arrestin2 High AT1R Expression Ymax (%) (hAT1R [1]): 103.1% | EC50 (hAT1R [1]): 6 nM | EC50 (AGTR1 [2]): 20.8 nM | DiscoveRx β-arrestin2 Ymax (%) (AGTR1 [2]): 44.8% | IP-1 Ymax (%) (AGTR1 [3]): 19.9% | EC50 (AGTR1 [3]): 106 nM | EC50 (hAT1R [4]): 26.4 nM | BRET P63 Ymax (hAT1R [5]): 17.4% | EC50 (hAT1R [5]): 13.3 nM

CCc1nc2c(C)cc(C)nc2n1Cc1ccc(-c2cc(OC3CCCCC3)ccc2-c2nnn[nH]2)cc1 [Example 209, 3-((5′-(Cyclohexyloxy)-2′-(1H-tetrazol-5-yl)-[1,1′-biphenyl]-4-yl)methyl)-2-ethyl-5,7-dimethyl-3H-imidazo[4,5-b]pyridine]
BRET β-Arrestin2 High AT1R Expression Ymax (%) (hAT1R [1]): 90.6% | EC50 (hAT1R [1]): 7.2 nM | EC50 (AGTR1 [2]): 45.9 nM | DiscoveRx β-arrestin2 Ymax (%) (AGTR1 [2]): 49.6% | IP-1 Ymax (%) (AGTR1 [3]): 25.5% | EC50 (AGTR1 [3]): 110 nM | EC50 (hAT1R [4]): 50 nM | BRET P63 Ymax (hAT1R [5]): 32.6% | EC50 (hAT1R [5]): 37.6 nM

CCc1nc2c(C)cc(C)nc2n1Cc1ccc(-c2cc(Oc3ccccc3F)ccc2-c2noc(=O)[nH]2)cc1 [Example 214, 3-(4′-((2-Ethyl-5,7-dimethyl-3H-imidazo[4,5-b]pyridin-3-yl)methyl)-5-(2-fluorophenoxy)-[1,1′-biphenyl]-2-yl)-1,2,4-oxadiazol-5(4H)-one]
BRET β-Arrestin2 High AT1R Expression Ymax (%) (hAT1R [1]): 86.5% | EC50 (hAT1R [1]): 4.2 nM | EC50 (AGTR1 [2]): 76.1 nM | DiscoveRx β-arrestin2 Ymax (%) (AGTR1 [2]): 74.1% | IP-1 Ymax (%) (AGTR1 [3]): 50.0% | EC50 (AGTR1 [3]): 89.6 nM | EC50 (hAT1R [4]): 15.9 nM | BRET P63 Ymax (hAT1R [5]): 43.3% | EC50 (hAT1R [5]): 35.6 nM

CCc1nc2c(C)cc(C)nc2n1Cc1ccc(-c2cc(-n3cc(C4CC4)nn3)ccc2-c2nnn[nH]2)cc1 [Example 225, 3-((5′-(4-Cyclopropyl-1H-1,2,3-triazol-1-yl)-2′-(5H-tetrazol-5-yl)-[1,1′-biphenyl]-4-yl)methyl)-2-ethyl-5,7-dimethyl-3H-imidazo[4,5-b]pyridine]
BRET β-Arrestin2 High AT1R Expression Ymax (%) (hAT1R [1]): 82.1% | EC50 (hAT1R [1]): 10.9 nM | EC50 (AGTR1 [2]): 29 nM | DiscoveRx β-arrestin2 Ymax (%) (AGTR1 [2]): 35.4% | IP-1 Ymax (%) (AGTR1 [3]): 7.0% | EC50 (AGTR1 [3]): 25.2 nM | EC50 (hAT1R [4]): 187 nM | BRET P63 Ymax (hAT1R [5]): 7.1% | EC50 (hAT1R [5]): 29.5 nM

CCc1nc2c(C)cc(C)nc2n1Cc1ccc(-c2cc(-n3cc(C(C)C)nn3)ccc2-c2nnn[nH]2)cc1 [Example 227]
BRET β-Arrestin2 High AT1R Expression Ymax (%) (hAT1R [1]): 87.8% | EC50 (hAT1R [1]): 7.4 nM | EC50 (AGTR1 [2]): 32 nM | DiscoveRx β-arrestin2 Ymax (%) (AGTR1 [2]): 51.6% | IP-1 Ymax (%) (AGTR1 [3]): 9.8% | EC50 (AGTR1 [3]): 268 nM | EC50 (hAT1R [4]): 31.4 nM | BRET P63 Ymax (hAT1R [5]): 19.9% | EC50 (hAT1R [5]): 30.4 nM

CCCc1cn(-c2ccc(-c3nnn[nH]3)c(-c3ccc(Cn4c(CC)nc5c(C)cc(C)nc54)cc3)c2)nn1 [Example 228]
BRET β-Arrestin2 High AT1R Expression Ymax (%) (hAT1R [1]): 93.1% | EC50 (hAT1R [1]): 31.9 nM | EC50 (AGTR1 [2]): 30.4 nM | DiscoveRx β-arrestin2 Ymax (%) (AGTR1 [2]): 32.1% | IP-1 Ymax (%) (AGTR1 [3]): 13.0% | EC50 (AGTR1 [3]): 147 nM | EC50 (hAT1R [4]): 210 nM | BRET P63 Ymax (hAT1R [5]): 11.4% | EC50 (hAT1R [5]): 125 nM

CCc1nc2c(C)cc(C)nc2n1Cc1ccc(-c2cc(-n3cc(C4CCCC4)nn3)ccc2-c2nnn[nH]2)cc1 [Example 230]
BRET β-Arrestin2 High AT1R Expression Ymax (%) (hAT1R [1]): 53.5% | EC50 (hAT1R [1]): 61.2 nM | EC50 (AGTR1 [2]): 63.1 nM | DiscoveRx β-arrestin2 Ymax (%) (AGTR1 [2]): 16.7% | IP-1 Ymax (%) (AGTR1 [3]): 12.7% | EC50 (AGTR1 [3]): 340 nM | EC50 (hAT1R [4]): 140 nM | EC50 (hAT1R [5]): > 100000 nM

CCc1nc2c(C)cc(C)nc2n1Cc1ccc(-c2cc(-c3cn(CC)nn3)ccc2-c2nnn[nH]2)cc1 [Example 234, 2-Ethyl-3-((5′-(1-ethyl-1H-1,2,3-triazol-4-yl)-2′-(1H-tetrazol-5-yl)-[1,1′-biphenyl]-4-yl)methyl)-5,7-dimethyl-3H-imidazo[4,5-b]pyridine]
BRET β-Arrestin2 High AT1R Expression Ymax (%) (hAT1R [1]): 93.3% | EC50 (hAT1R [1]): 3.4 nM | EC50 (AGTR1 [2]): 9.2 nM | DiscoveRx β-arrestin2 Ymax (%) (AGTR1 [2]): 59.9% | IP-1 Ymax (%) (AGTR1 [3]): 18.8% | EC50 (AGTR1 [3]): 19.3 nM | EC50 (hAT1R [4]): 12.2 nM | BRET P63 Ymax (hAT1R [5]): 37.1% | EC50 (hAT1R [5]): 28.2 nM

Reference: patent US12037324B2, “Biarylmethyl heterocycles” (Université de Montréal, priority 2016, dated 2024)
